Measured values reported in patent publication US20200206196A1, “Antiviral Drugs” (priority 2017, published 2020).
Residues, ends and D or L forms follow the SMILES beside them.

Assays:
HeV [1] = type: cell-based, Hendra virus
HeV [2] = type: cell-based, Hendra virus; remark: listed apart in the source
HeLa cells [3] = test: Cell viability: relative cell numbers (DAPI nuclei count); settings: 26 h post-treatment, concentrations resulting in antiviral activity
RSV = type: cell-based, RSV (strain A2)
HeV [4] = type: cell-based, Hendra virus; remark: listed apart in the source
HeLa cells [5] = test: Alamar blue assay of metabolic activity; type: cell-based; settings: HeLa cells treated for 26 h, vs vehicle or media
HeV [6] = type: cell-based, Hendra virus; remark: listed apart in the source
NiV = type: cell-based, Nipah virus
[7] = system: vesicular stomatitis virus (VSV); type: cell-based
[8] = system: influenza A virus (A/WSN/33); type: cell-based, Influenza A/WSN/33 (H1N1)
[9] = system: HeV-F and HeV-G mediated cell-cell fusion; type: cell-based, Hendra virus

SMILES | HeV infection (HeV titres), dose response (HeV [1]) | inhibition of viral protein synthesis (virus antigen levels per well) (HeV [2]) | inhibition of virus-induced cell death (cell numbers per well) (HeV [2]) | reduction in HeV titers (HeV [1]) [%] | reduction in virus titres, HeV (HeV [1]) | impact on cell numbers (HeLa cells [3]) | reduction in virus titres, RSV (RSV) | viral protein production (P protein and N protein) (HeV [4]) | change in metabolic activity (Alamar blue) (HeLa cells [5]) | intracellular viral RNA levels (HeV [6]) | reduction in virus titres, NiV (NiV) | reduction in virus titres, VSV [7] | reduction in virus titres, A/WSN/33 [8] | cell-cell fusion of target cells with HeV-F/HeV-G effector cells [9]
CCOc1nc2cccc(C(=O)O)c2n1Cc1ccc(-c2ccccc2-c2nnn[nH]2)cc1 [Candesartan] | inhibited HeV infection in a dose-dependent manner | – | – | – | – | – | – | – | – | – | – | – | – | –
CSCC[C@@H](C=O)NC(=O)[C@H](CC(C)C)NC(=O)[C@H](CC(C)C)NC(C)=O [calpain inhibitor II] (Ac-Leu-Leu-Met-aldehyde) | – | more effective than E64D | more effective than E64D | – | – | – | – | – | – | – | – | – | – | –
CCCc1nc2c(C)cc(-c3nc4ccccc4n3C)cc2n1Cc1ccc(-c2ccccc2C(=O)O)cc1 [Telmisartan] | inhibited HeV infection in a dose-dependent manner | – | – | ~95 | significant reduction in virus titres | mild impact on cell numbers | significant reduction in virus titres | almost completely abolished | no significant change in metabolic activity | significantly reduced intracellular viral RNA levels | significant reduction in virus titres | significant reduction in virus titres | not for A/WSN/33 | comparable to target cells treated with vehicle
